{"source": "patent US20230255921A1", "about": "“COMPOSITION FOR TREATING KCA3.1 CHANNEL-MEDIATED DISEASES COMPRISING PHENYLALKYL CARBAMATE COMPOUND” (CEL[…], priority 2020, published 2023)", "key": {"[1]": {"test_system": "lung fibrosis induced by bleomycin", "test": "Bleomycin-induced lung fibrosis mouse model", "assay_type": "in vivo, C57BL/6 wild-type mice", "settings": "BLM+SF-2 vs BLM group", "description": "To confirm the effect of the SF-2 compound according to the present invention on the inhibition of fibrosis, an experiment was performed as follows. First. C57BL/6 wild-type mice (purchased from Orient Bio) were divided into three groups of 6 to 8, and used as a disease-induced group, a drug-administered group, and a normal control. The test mice for each group were treated as follows.\n(1) Disease-induced group: Lung fibrosis was induced by injecting 1.5 units of bleomycin into the airways of test mice. In addition, the same amount of distilled water as the SF-2 compound administered to the following drug-administered group was intraperitoneally injected (100 mg/kg) 5 times a week. In the accompanying drawing, bleomycin (BLM) refers to this disease-induced group.\n(2) Drug-administered group: 1.5 units of bleomycin was injected into the airways of test mice, and then the SF-2 compound of the present invention was intraperitoneally injected (100 mg/kg) five times a week. In the accompanying drawing, BLM+SF-2 indicates the drug-administered group.\n(3) Normal control: The same amount of distilled water as that of bleomycin injected into the disease-induced group was injected into the airways. In addition, the same amount of distilled water as that of the SF-2 compound administered to the drug-administered group was intraperitoneally injected five times a week. In the accompanying drawing, C or Control indicates the normal group.\nThe mouse models for each group were treated with drugs for 4 weeks in the same way as described above and immediately killed by administering an excess of an anesthetic, and then the lungs were extracted and used in the subsequent test.\n(§1) The lung and liver tissues extracted from the mouse model were fixed with a paraformaldehyde solution, and cut to a thickness of 1 to 2 mm. The cut tissue was embedded in paraffin and cut to a thickness of 4 μm, the paraffin was removed with xylene, the xylene was removed with ethanol, and the resultant was washed with tap water, thereby obtaining a paraffinized tissue specimen.\n(§2) Tissue immunohistochemistry for collagen, which is a fibrotic marker, in the lung and liver tissues, was performed by Masson's trichrome staining.\n(§3) The degrees of mRNA expression of pro-inflammatory or pro-fibrotic agents in lung and liver tissues extracted from the mouse models were measured by real time PCR. RNAs of these tissues were isolated using a TRIzol reagent (Molecular Research Center. Cincinnati, Ohio), and single-stranded cDNA was synthesized using BcaBEST polymerase (Takara Shuzo), followed by performing PCR."}, "[2]": {"test_system": "liver fibrosis induced by a CDAHFD diet", "test": "CDAHFD diet-induced liver fibrosis mouse model", "assay_type": "in vivo, C57BL/6 wild-type mice", "settings": "CDAHFD+SF-2 vs CDAHFD group, 100 mg/kg/day five times a week, 16 weeks", "description": "To confirm the therapeutic effect of the SF-2 compound of the present invention on liver inflammation and fibrosis, an experiment was performed as follows. First, C57BL/6 wild-type mice (purchased from Orient Bio) were divided into three groups of 6 to 8, and used as a disease-induced group, a drug-administered group, and a normal control. The test mice for each group were treated as follows.\n(1) Drug-induced group: Test mice were fed a CDAHFD diet (choline deficient, L-amino-acid-defined, high-fat diet with 0.1% methionine. A06071302, Research Diets, New Brunswick, N.J.) to induce fatty liver disease and fibrosis. In addition, the same amount of distilled water as that of the SF-2 compound administered to the following drug-administered group five times a week using a zonde (oral tube). In the accompanying drawing, CDAHFD indicates the disease-induced group.\n(2) Drug-administered group: The SF-2 compound of the present invention, together with the CDAHFD diet, was administered (100 mg/kg/day) to test mice five times a week. In the accompanying drawing, CDAHFD+SF-2 indicates the drug-administered group.\n(3) Normal control: Test mice were fed a normal diet. In addition, the same amount of distilled water as that of the SF-2 compound was administered to the drug-administered group five times a week using a zonde (oral tube). In the accompanying drawing, C or Control indicates the normal group.\nThe mouse models for each group were treated with drugs for 16 weeks in the same way as described above and immediately killed by administering an excess of an anesthetic, and then the livers were extracted and used in the subsequent test.\nas §1, §2, §3"}, "KCa3.1 channel": {"molecular_target": "KCa3.1 channel (Mus musculus, UniProt O89109)", "sequence (O89109 whole entry)": "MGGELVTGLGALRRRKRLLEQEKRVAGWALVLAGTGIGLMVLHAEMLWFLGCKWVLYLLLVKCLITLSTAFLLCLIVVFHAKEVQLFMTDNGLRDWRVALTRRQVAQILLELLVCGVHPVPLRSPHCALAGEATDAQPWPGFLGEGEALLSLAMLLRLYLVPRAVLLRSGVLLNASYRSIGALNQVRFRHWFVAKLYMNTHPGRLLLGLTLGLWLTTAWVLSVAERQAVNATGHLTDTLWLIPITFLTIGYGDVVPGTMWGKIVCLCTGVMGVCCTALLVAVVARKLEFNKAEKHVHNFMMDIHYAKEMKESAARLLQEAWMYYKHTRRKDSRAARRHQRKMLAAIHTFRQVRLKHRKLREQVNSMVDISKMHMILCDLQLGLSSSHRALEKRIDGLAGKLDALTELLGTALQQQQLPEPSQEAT", "test": "Whole-cell patch-clamp KCa3.1 current in cultured fibroblasts", "assay_type": "cell-based", "set-up": "host or cells: fibroblasts (ATCC CRL-2795)", "settings": "FIG. 1 and FIG. 2", "description": "Fibroblasts (CRL-2795: American Type Culture Collection, VA) were cultured in Dulbecco's Modified Eagle Medium (Hyclone, Logan, Utah). All cells were maintained in 5% CO2 under a humid condition at 37° C. The cultured fibroblasts were exposed to pro-inflammatory agents such as lipopolysaccharides (LPS) and a pro-fibrotic agent TGFβ, and the compounds of Chemical Formulas 2 to 8 of the present invention (hereinafter, referred to as SF-2 to SF-8 compounds) for 24 hours, and then anti-inflammatory and anti-fibrotic effects were tested.\nWhole cell current through the cell membrane in isolated and cultured single fibroblasts was measured using a patch-clamp technique. A voltage ramp was used to apply voltage to whole-cell voltage clamp cells from −100 mV to +100 mV using a micro-glass electrode, the generated current was amplified using an amplifier (EPC-10, HEKA, Lambrecht, Germany) and then recorded at a sampling rate of 1 to 4 kHz. […]\nKCa3.1 current was isolated using the following method. Ina current recorded by injecting 1 μM Ca^2+ into whole-cell voltage clamp cells using a glass electrode and applying 1-ethyl-2-benzimidazolinone (1-EBIO, 100 μM) activating KCa3.1 current, a current inhibited by KCa3.1 channel inhibitor TRAM-34 (10 μM) was determined as the KCa3.1 current, and the recorded current was normalized by division by cell capacitance."}, "[3]": {"settings": "lung tissue, 100 mg/kg intraperitoneal five times a week, 4 weeks, FIG. 6"}}, "note": "Counter-ions that a name gives are not always drawn.", "data": [{"compound": "NC(=O)OC[C@H](N)Cc1ccccc1", "note": "[SF-2, (R)-2-amino-3-phenyl propylcarbamate hydrochloride]", "values": [{"measurement": "fibrosis degree, Masson's trichrome staining of lung tissue", "setting": "[1]; intraperitoneal five times a week for 4 weeks, FIG. 5", "result": "decreased"}, {"measurement": "mRNA expression level of Col1α", "setting": "[1]; [3]", "result": "greatly decreased"}, {"measurement": "mRNA expression level of Col3α", "setting": "[1]; [3]", "result": "greatly decreased"}, {"measurement": "mRNA expression level of α-SMA", "setting": "[1]; [3]", "result": "greatly decreased"}, {"measurement": "degree of blue staining of the liver tissue (Masson's trichrome, collagen fiber)", "setting": "[2]; FIG. 7", "result": "greatly decreased"}, {"measurement": "mRNA expression level of Col1α", "setting": "[2]; FIG. 8", "result": "greatly decreased"}, {"measurement": "mRNA expression level of Col3α", "setting": "[2]; FIG. 8", "result": "greatly decreased"}, {"measurement": "mRNA expression level of α-SMA", "setting": "[2]; FIG. 8", "result": "greatly decreased"}, {"measurement": "KCa3.1 current activated by Ca2+ and 1-EBIO in cells", "setting": "KCa3.1 channel", "result": "inhibited by SF-2 in a concentration-dependent manner"}]}]}
